21 molecules from patent US7030139B2, “Compounds” (AstraZeneca AB, priority 2001, dated 2006) can be followed below.

SMILES strings stand for the structures. pEC50, pIC50, pKi: −log10 of the molar value. Where two headings read alike, the source gives them in different places.

Test [1] addresses T1, hCB2 (Homo sapiens, UniProt P34972).
T1 construct: purchased BioSignal
The experiment in a line: hCB2 receptor binding (3H-CP55,940 displacement, membranes). To be noted: for IC50: hCB2 IC50 (nM).

The target in test [2] is T1, hCB2. In words: hCB2 GTPγS binding. The class given is biochemical. Conditions: for EC50: read-out: EC50, hCB2, nM.
The target in a further test is T2, hCB2-Sf9 (Homo sapiens, UniProt P34972).
T2 construct: host or cells: Sf9 (inferred from the head 'hCB2-Sf9')
T2 sequence (P34972 whole entry): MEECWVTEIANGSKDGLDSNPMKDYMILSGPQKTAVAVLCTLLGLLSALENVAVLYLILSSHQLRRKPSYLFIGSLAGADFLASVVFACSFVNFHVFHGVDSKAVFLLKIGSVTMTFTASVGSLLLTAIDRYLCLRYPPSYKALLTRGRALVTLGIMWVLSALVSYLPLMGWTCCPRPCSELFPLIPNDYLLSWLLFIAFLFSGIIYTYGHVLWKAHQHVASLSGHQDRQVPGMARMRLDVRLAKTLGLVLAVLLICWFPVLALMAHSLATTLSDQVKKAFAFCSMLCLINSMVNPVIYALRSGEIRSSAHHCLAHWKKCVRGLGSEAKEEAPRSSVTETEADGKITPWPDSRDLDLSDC
The experiment in a line: Ki hCB2-Sf9 binding (compounds made in a plate). Conditions: Table 2, printed in the IC50 (nM) column; n = 2; measured from 2 compounds made in a plate.

T1 sequence (P34972 whole entry): as above

`CCOc1ccc(C(C)c2nc3cc(N(C)C(=O)NC(C)C)ccc3n2CC2CC2)cc1` (racemic) [Example 53, (rac)-N-[1-(Cyclopropylmethyl)-2-[1-(4-ethoxyphenyl)ethyl]1H-benzimidazol-5-yl]-N-methyl-N′-(1-methylethyl)-urea]: on hCB2 [1], the half-maximal inhibitory concentration (IC50) (in general, the point on the concentration scale where inhibition reaches its midpoint) came out at 36 nM. Further, on hCB2 [2], the pEC50 (as a rule, the EC50 on a negative log10 scale, so that one unit is a factor of ten) was 8.17 and the maximal response (Emax) (usually the maximal effect, on the per cent scale that the assay sets) was found to be 46%.
Regarding `CCOc1ccc(C(C)c2nc3cc(N(C)C(=O)NC(C)C)ccc3n2CC2CC2)cc1` (single isomer, unassigned; (+)) [Example 55, (+)-N-[1-(Cyclopropylmethyl)-2-[1-(4-ethoxyphenyl)ethyl]-1H-benzimidazol-5-yl]-N-methyl-N′-(1-methylethyl)-urea], at hCB2 [1], the concentration for half-maximal inhibition (IC50) is 715 nM.
`CCOc1ccc(C(C)c2nc3cc(N(C)C(=O)NC(C)C)ccc3n2CC2CC2)cc1` (single isomer, unassigned; (-)) [Example 54, (−)-N-[1-(Cyclopropylmethyl)-2-[1-(4-ethoxyphenyl)ethyl]-1H-benzimidazol-5-yl]-N-methyl-N′-(1-methylethyl)-urea] showed an IC50 at hCB2 [1] of 15.5 nM. At hCB2 [2], this molecule gave a pEC50 of 8.47 and a maximal effect (Emax) of 66%.
With `CCOc1ccc(Cc2nc3cc(C(=O)N(CC)CC)ccc3n2CCC(=O)OC)cc1` [Example 5, Methyl 3-[5-[(diethylamino)carbonyl]-2-(4-ethoxybenzyl)-1H-benzimidazol-1-yl]propanoate], the negative-log Ki (pKi) (usually the Ki on a negative log10 scale, so that one unit is a factor of ten) at hCB2 [1] was 6.85. At hCB2 [2], the pEC50 is 7.19. For the same molecule, the Emax at hCB2 [2] (read-out: % Emax, hCB2) worked out at 53%.
Taken in the same sequence, the figures for `CCOc1ccc(Cc2nc3cc(C(=O)N(CC)CC)ccc3n2CC2CC2)cn1` [Example 13, 1-(Cyclopropylmethyl)-2-[(6-ethoxy-3-pyridinyl)methyl]-N,N-diethyl-1H-benzimidazole-5-carboxamide] were 6.88, 7.01 and 93%.
In the same order, the values of `CCOc1ccc(Cc2nc3cc(CN4CCOCC4)ccc3n2CC2CC2)cc1` [Example 24, 1-(Cyclopropylmethyl)-2-(4-ethoxybenzyl)-5-(4-morpholinylmethyl)-1H-benzimidazole] are 6.75, 7.09 and 62%.
As to `CCOc1ccc(Cc2nc3cc(NC(=O)OC)ccc3n2CC2CC2)cc1` [Example 26, Methyl-1-(cyclopropylmethyl)-2-(4-ethoxybenzyl)-1H-benzimidazol-5-yl carbamate], on hCB2 [2], the “% Emax, hCB2” value is given as 295(41%) and the EC50 (commonly the concentration giving half of the maximal effect) came to 295 nM.
As for `C=CCNc1ccc2c(c1)nc(Cc1ccc(OCC)cc1)n2CC1CC1` [Example 33, N-Allyl-1-(cyclopropylmethyl)2-(4-ethoxybenzyl)-1H-benzimidazol-5-amine], at hCB2 [1] (Table 1, human CB2 membranes, 3H-CP55,940, read-out: Ki(hCB2)), the pKi was 6.51. Besides, at hCB2 [2] (Table 1, GTPγS binding, human CB2 membranes), the EC50 was 146 nM. The Emax on hCB2 [2] (Table 1, GTPγS binding, maximal stimulated binding defined with 1 μM Win 55,212-2, read-out: % Emax, hCB2) is 54%.
Turning to `CCOc1ccc(Nc2nc3cc(C(=O)N(CC)CC)ccc3n2CCC(C)C)cc1` [Example 39, 2-(4-Ethoxyanilino)-N,N-diethyl-1-isopentyl-1H-benzimidazole-5-carboxamide], at hCB2 [1], the negative logarithm of the Ki (pKi) is 7.01. The molecule further showed a pEC50 at hCB2 [2] of 7.19. Moreover, the Emax on hCB2 [2] (read-out: % Emax, hCB2) was 64%.
In the case of `CCOc1ccc(Cc2nc3cc(C(=O)N(CC)CC)ccc3n2Cc2ccsc2)cc1` [Example 40, 2-[(4-Ethoxyphenyl)methyl]-N,N-diethyl-1-(3-thienylmethyl)-1H-benzimidazole-5-carboxamide], the half-inhibitory concentration (IC50) on hCB2 [1] stood at 2.8 nM. Also, at hCB2 [2], the pEC50 is 8.92 and the Emax amounted to 74%.
In the same order, the values of `CCOc1ccc(Cc2nc3cc(C(=O)N(CC)CC)ccc3n2C[C@@H]2CCCO2)cc1` [Example 42] are 23 nM, 8.30 and 76%.
In the same order, the values of `CCOc1ccc(C(O)c2nc3cc(C(=O)N(CC)CC)ccc3n2CCC(C)C)cc1` (stereo not shown) [Example 46, 2-[(4-Ethoxyphenyl)hydroxymethyl]-N,N-diethyl-(3-methylbutyl)-1H-benzimidazole-5-carboxamide] are 100 nM, 7.16 and 70%.
Taken in the same sequence, the figures for `CCOc1ccc(Cc2nc3cc(N(C)C(=O)CC(C)C)ccc3n2Cc2ccsc2)cc1` [Example 47, N-[2-[(4-Ethoxyphenyl)methyl]-1-(3-thienylmethyl)1H-benzimidazol-5-yl]-N,3-dimethyl-butanamide] were 3.3 nM, 8.85 and 70%.
In turn, `CCOc1ccc(Cc2nc3cc(N(C)C(=O)CC(C)C)ccc3n2Cc2ccc(COC(C)=O)o2)cc1` [Example 49, N-[1-[[5-[(Acetyloxy)methyl]-2-furanyl]methyl]-2-[(4-ethoxyphenyl)methyl]-1H-benzimidazol-5-yl]-N,3-dimethyl-butanamide] registered an IC50 at hCB2 [1] of 32 nM. Besides, at hCB2 [2], the pEC50 is 8.17 and the maximal response (Emax) is 67%.
Take `CCOc1ccc(C(C)c2nc3cc(N(C)C(=O)CC(C)C)ccc3n2CC2CC2)cc1` (stereo not shown) [Example 52, N-[1-(Cyclopropylmethyl)-2-[1-(4-ethoxyphenyl)ethyl]-1H-benzimidazol-5-yl]-N,3-dimethyl-butanamide]: on hCB2 [2], the Emax was 41%.
`CCOc1ccc(C(C)c2nc3cc(N(C)C(=O)NC(C)C)ccc3n2CC2CCCCC2)cc1` (stereo not shown) [Example 56, N-[1-(Cyclohexylmethyl)-2-[1-(4-ethoxyphenyl)ethyl]-1H-benzimidazol-5-yl]-N-methyl-N′-(1-methylethyl)-urea] yielded a half-maximal inhibitory concentration (IC50) on hCB2 [1] of 5.4 nM. On hCB2 [2], the pEC50 was 8.82 and the maximal effect (Emax) was 88%.
Taken in the same sequence, the figures for `CCOc1ccc(Cc2nc3cc(C(=O)N(CC)CC)cnc3n2Cc2ccc([N+](=O)[O-])s2)cc1` [Example 57, 2-[(4-Ethoxyphenyl)methyl]-N,N-diethyl-3-[(5-nitro-2-thienyl)methyl]-3H-imidazo[4,5-b]pyridine-6-carboxamide] were 9.5 nM, 8.55 and 72%.
For the molecule `CCOc1ccc(Cc2nc3cc(N(C)C(=O)CC(C)C)cnc3n2CC2CC2)cc1` [Example 59, N-[3-(Cyclopropylmethyl)-2-[(4-ethoxyphenyl)methyl]-3H-imidazo[4,5-b]pyridin-6-yl]-N,3-dimethyl-butanamide], the half-inhibitory concentration (IC50) on hCB2 [1] was 328 nM. On hCB2 [2], this molecule had a negative-log EC50 (pEC50) of 7.19 and an Emax of 67%.
Regarding `CCOc1ccc(Cc2nc3cc(N(C)C(=O)NC(C)C)cnc3n2CC2CC2)cc1` [Example 60, N-[3-(Cyclopropylmethyl)-2-[(4-ethoxyphenyl)methyl]-3H-imidazo[4,5-b]pyridin-6-yl]-N-methyl-N′-(1-methylethyl)-urea], the pIC50 – broadly, the IC50 on a negative log10 scale, so that one unit is a factor of ten – at hCB2 [1] (read-out: hCB2 IC50) is 6.01.
For the molecule `CCOc1ccc(Cc2nc3cc(N(C)S(=O)(=O)c4ccccc4)cnc3n2CC2CC2)cc1` [Example 61, N-[3-(Cyclopropylmethyl)-2-[(4-ethoxyphenyl)methyl]-3H-imidazo[4,5-b]pyridin-6-yl]-N-methyl-benzenesulfonamide], the inhibition constant (Ki) (as a rule, the equilibrium dissociation constant of an inhibitor or competing ligand from its target) at hCB2-Sf9 was 11.4 nM.
Still for that read-out and setting: the same measure for `CCOc1ccc(Cc2nc3cc(N(C)S(=O)(=O)c4cccs4)cnc3n2CC2CC2)cc1` [Example 62, N-[3-(Cyclopropylmethyl)-2-[(4-ethoxyphenyl)methyl]-3H-imidazo[4,5-b]pyridin-6-yl]-N-methyl-2-thiophenesulfonamide]: 4.5 nM.
